Data taken from patent US11724992B2 (Novartis AG, priority 2017, dated 2023).

tested on: IL-1β production in PMA-differentiated THP-1 cells; test: IL-1β production in PMA-differentiated THP-1 cells stimulated with gramicidin (hTHP-1 assay, 2% fetal bovine serum; Procedures 1-3); type: cell-based, human; settings: hTHP-1 assay containing 2% fetal bovine serum; class symbols; read-out: hTHP-1 IC50 (Average IC50 of compounds in hTHP-1 assay)
Procedure: The following protocol is suitable for testing the activity of the compounds disclosed herein.
Procedure 1: IL-1β Production in PMA-Differentiated THP-1 Cells Stimulated with Gramicidin
THP-1 cells were purchased from the American Type Culture Collection and sub-cultured according to instructions from the supplier. Cells were cultured in complete RPMI 1640 (containing 10% heat inactivated FBS, penicillin (100 units/ml) and streptomycin (100 μg/ml)), and maintained in log phase prior to experimental setup. Prior to the experiment, compounds were dissolved in dimethyl sulfoxide (DMSO) to generate a 30 mM stock. The compound stock was first pre-diluted in DMSO to 3, 0.34, 0.042 and 0.0083 mM intermediate concentrations and subsequently spotted using Echo550 liquid handler into an empty 384-well assay plate to achieve desired final concentration (e.g. 100, 33, 11, 3.7, 1.2, 0.41, 0.14, 0.046, 0.015, 0.0051, 0.0017 μM). DMSO was backfilled in the plate to achieve a final DMSO assay concentration of 0.37%. The plate was then sealed and stored at room temperature until required.
THP-1 cells were treated with PMA (Phorbol 12-myristate 13-acetate) (20 ng/ml) for 16-18 hours. On the day of the experiment the media was removed and adherent cells were detached with trypsin for 5 minutes. Cells were then harvested, washed with complete RPMI 1640, spun down, and resuspended in RPMI 1640 (containing 2% heat inactivated FBS, penicillin (100 units/ml) and streptomycin (100 μg/ml). The cells were plated in the 384-well assay plate containing the spotted compounds at a density of 50,000 cells/well (final assay volume 50 μl). Cells were incubated with compounds for 1 hour and then stimulated with gramicidin (5 μM) (Enzo) for 2 hours. Plates were then centrifuged at 340 g for 5 min. Cell free supernatant (40 μL) was collected using a 96-channel PlateMaster (Gilson) and the production of IL-1β was evaluated by HTRF (cisbio). The plates were incubated for 18 h at 4° C. and read using the preset HTRF program (donor emission at 620 nm, acceptor emission at 668 nm) of the SpectraMax i3x spectrophotometer (Molecular Devices, software SoftMax 6). A vehicle only control and a dose titration of CRID3 (100-0.0017 μM) were run concurrently with each experiment.
Procedure 2: IL-1β Production in PMA-Differentiated THP-1 Cells Stimulated with Gramicidin
THP-1 cells were purchased from the American Type Culture Collection and sub-cultured according to instructions from the supplier. Prior to experiments, cells were cultured in complete RPMI 1640 (containing 10% heat inactivated FBS, penicillin (100 units/ml) and streptomycin (100 μg/ml)), and maintained in log phase prior to experimental setup. Prior to the experiment THP-1 were treated with PMA (Phorbol 12-myristate 13-acetate) (20 ng/ml) for 16-18 hours. Compounds were dissolved in dimethyl sulfoxide (DMSO) to generate a 30 mM stock. On the day of the experiment the media was removed and adherent cells were detached with trypsin for 5 minutes. Cells were then harvested, washed with complete RPMI 1640, spun down, resuspended in RPMI 1640 (containing 2% heat inactivated FBS, penicillin (100 units/ml) and streptomycin (100 μg/ml). The cells were plated in a 384-well plate at a density of 50,000 cells/well (final assay volume 50 μl). Compounds were first dissolved in assay medium to obtain a 5× top concentration of 500 μM. 10 step dilutions (1:3) were then undertaken in assay medium containing 1.67% DMSO. 5× compound solutions were added to the culture medium to achieve desired final concentration (e.g. 100, 33, 11, 3.7, 1.2, 0.41, 0.14, 0.046, 0.015, 0.0051, […]). Final DMSO concentration was at 0.37%. Cells were incubated with compounds for 1 hour and then stimulated with gramicidin (5 μM) (Enzo) for 2 hours. Plates were then centrifuged at 340 g for 5 min. Cell free supernatant (40 μL) was collected using a 96-channel PlateMaster (Gilson) and the production of IL-1β was evaluated by HTRF (cisbio). […]

Q: `CC(C)(O)c1cccc(S(N)(=O)=NC(=O)Nc2c3c(c(F)c4c2CCC4)CCC3)c1` (single isomer, unassigned) [Example 129] was tested. Which IC50 did it give?
A: The IC50 was 5000 to 30000 nM.

Q: `CC(C)c1cc(C#N)cc(C(C)C)c1NC(=O)N=S(N)(=O)c1ncc(C(C)(C)O)s1` (single isomer, unassigned) [Example 130] was tested. Which IC50 did it give?
A: The IC50 was 40 to 200 nM.

Q: `CC(C)c1cc(C#N)cc(C(C)C)c1NC(=O)N=S(N)(=O)c1ncc(C(C)(C)O)s1` (single isomer, unassigned) [Example 131] was tested. Which IC50 did it give?
A: The IC50 was 1000 to 5000 nM.

Q: `CC(C)c1cc(OC(F)F)cc(C(C)C)c1NC(=O)N=S(N)(=O)c1ncc(C(C)(C)O)s1` (single isomer, unassigned) [Example 136] was tested. Which IC50 did it give?
A: The IC50 was 1000 to 5000 nM.

Q: For `CC(C)c1cc(OC(F)F)cc(C(C)C)c1NC(=O)N=S(N)(=O)c1ncc(C(C)(C)O)s1` (single isomer, unassigned) [Example 137], which IC50 is on record?
A: Its IC50 is 40 to 200 nM.

Q: With `CC(C)c1cc(F)cc(C(C)C)c1NC(=O)N=S(N)(=O)c1ncc(C(C)(C)O)s1` (single isomer, unassigned) [Example 138] as the compound, how does the IC50 read?
A: The IC50 was 1000 to 5000 nM.

Q: How did the IC50 turn out when `CC(C)c1cc(F)cc(C(C)C)c1NC(=O)N=S(N)(=O)c1ncc(C(C)(C)O)s1` (single isomer, unassigned) [Example 139] was run?
A: The IC50 was 40 to 200 nM.

Q: For `CC(C)c1cc(F)cc(C(C)C)c1NC(=O)N=S(N)(=O)c1cc(C(C)(C)O)cs1` (single isomer, unassigned) [Example 140], which IC50 is on record?
A: Its IC50 is 8 to 40 nM.

Q: Which IC50 does the source give for `CC(C)c1cc(F)cc(C(C)C)c1NC(=O)N=S(N)(=O)c1cc(C(C)(C)O)cs1` (single isomer, unassigned) [Example 141] here?
A: Its IC50 is 1000 to 5000 nM.

Q: With `CC(C)(O)c1ccc(S(N)(=O)=NC(=O)Nc2c3c(c(Cl)c4c2CCC4)CCC3)c(F)c1` (single isomer, unassigned) [Example 142] as the compound, how does the IC50 read?
A: The IC50 was 40 to 200 nM.

Q: For `CC(C)(O)c1ccc(S(N)(=O)=NC(=O)Nc2c3c(c(Cl)c4c2CCC4)CCC3)c(F)c1` (single isomer, unassigned) [Example 143], which IC50 is on record?
A: The IC50 was 5000 to 30000 nM.

Q: For `CC(C)(O)c1ncc(S(N)(=O)=NC(=O)Nc2c3c(c(C#N)c4c2CCC4)CCC3)s1` (single isomer, unassigned) [Example 146], which IC50 is on record?
A: The IC50 was 1000 to 5000 nM.

Q: `CC(C)(O)c1ncc(S(N)(=O)=NC(=O)Nc2c3c(c(C#N)c4c2CCC4)CCC3)s1` (single isomer, unassigned) [Example 147] was tested. Which IC50 did it give?
A: Its IC50 is 200 to 1000 nM.

Q: For `Cc1oc(S(N)(=O)=NC(=O)Nc2c3c(c(F)c4c2CCC4)CCC3)cc1C(C)(C)O` (single isomer, unassigned) [Example 148], which IC50 is on record?
A: Its IC50 is less than 8 nM.

Q: Which IC50 does the source give for `Cc1oc(S(N)(=O)=NC(=O)Nc2c3c(c(F)c4c2CCC4)CCC3)cc1C(C)(C)O` (single isomer, unassigned) [Example 149] here?
A: Its IC50 is 200 to 1000 nM.

Q: How did the IC50 turn out when `CC(C)(O)c1cccc(S(N)(=O)=NC(=O)Nc2c3c(cc4c2CCC4)CCC3)c1` (single isomer, unassigned) [Example 150] was run?
A: Its IC50 is 5000 to 30000 nM.

Q: For `CC(C)(O)c1cccc(S(N)(=O)=NC(=O)Nc2c3c(cc4c2CCC4)CCC3)c1` (single isomer, unassigned) [Example 151], which IC50 is on record?
A: Its IC50 is 200 to 1000 nM.

Q: With `CC(C)(O)c1ccc(S(N)(=O)=NC(=O)Nc2c3c(c(F)c4c2CCC4)CCC3)c(F)c1` (single isomer, unassigned) [Example 152] as the compound, how does the IC50 read?
A: The IC50 was 40 to 200 nM.

Q: How did the IC50 turn out when `CC(C)(O)c1ccc(S(N)(=O)=NC(=O)Nc2c3c(c(F)c4c2CCC4)CCC3)c(F)c1` (single isomer, unassigned) [Example 153] was run?
A: The IC50 was 1000 to 5000 nM.

Q: `CN(C)Cc1ccc(S(N)(=O)=NC(=O)Nc2c3c(cc4c2CCC4)CCC3)c(F)c1` (single isomer, unassigned) [Example 154] was tested. Which IC50 did it give?
A: Its IC50 is 40 to 200 nM.

Q: Which IC50 does the source give for `CN(C)Cc1ccc(S(N)(=O)=NC(=O)Nc2c3c(cc4c2CCC4)CCC3)c(F)c1` (single isomer, unassigned) [Example 155] here?
A: The IC50 was 1000 to 5000 nM.

Q: `CC(C)c1cc(F)cc(C(C)C)c1NC(=O)N=S(N)(=O)c1ccc(C(C)(C)O)s1` (single isomer, unassigned) [Example 156] was tested. Which IC50 did it give?
A: Its IC50 is 200 to 1000 nM.

Q: For `CC(C)c1cc(F)cc(C(C)C)c1NC(=O)N=S(N)(=O)c1ccc(C(C)(C)O)s1` (single isomer, unassigned) [Example 157], which IC50 is on record?
A: The IC50 was 5000 to 30000 nM.

Q: With `CC(C)(O)c1ccc(S(N)(=O)=NC(=O)Nc2c3c(c(F)c4c2CCC4)CCC3)c(Cl)c1` (single isomer, unassigned) [Example 158] as the compound, how does the IC50 read?
A: The IC50 was 1000 to 5000 nM.

Q: Which IC50 does the source give for `CC(C)(O)c1ccc(S(N)(=O)=NC(=O)Nc2c3c(c(F)c4c2CCC4)CCC3)c(Cl)c1` (single isomer, unassigned) [Example 159] here?
A: The IC50 was 5000 to 30000 nM.

Q: For `CN(C)Cc1cccc(S(N)(=O)=NC(=O)Nc2c3c(cc4c2CCC4)CCC3)c1` (single isomer, unassigned) [Example 160], which IC50 is on record?
A: The IC50 was 200 to 1000 nM.

Q: How did the IC50 turn out when `CN(C)Cc1cccc(S(N)(=O)=NC(=O)Nc2c3c(cc4c2CCC4)CCC3)c1` (single isomer, unassigned) [Example 161] was run?
A: The IC50 was 5000 to 30000 nM.

Q: With `Cc1cc(S(N)(=O)=NC(=O)Nc2c3c(cc4c2CCC4)CCC3)ccc1C(C)(C)O` (single isomer, unassigned) [Example 162] as the compound, how does the IC50 read?
A: The IC50 was 200 to 1000 nM.

Q: How did the IC50 turn out when `Cc1cc(S(N)(=O)=NC(=O)Nc2c3c(cc4c2CCC4)CCC3)ccc1C(C)(C)O` (single isomer, unassigned) [Example 163] was run?
A: The IC50 was 5000 to 30000 nM.

Q: With `Cc1nc(C(C)(C)O)sc1S(N)(=O)=NC(=O)Nc1c2c(cc3c1CCC3)CCC2` (single isomer, unassigned) [Example 164] as the compound, how does the IC50 read?
A: Its IC50 is 8 to 40 nM.

Q: For `Cc1nc(C(C)(C)O)sc1S(N)(=O)=NC(=O)Nc1c2c(cc3c1CCC3)CCC2` (single isomer, unassigned) [Example 165], which IC50 is on record?
A: Its IC50 is 1000 to 5000 nM.

Q: How did the IC50 turn out when `CC(C)(O)c1cc(F)cc(S(N)(=O)=NC(=O)Nc2c3c(c(F)c4c2CCC4)CCC3)c1` (single isomer, unassigned) [Example 170] was run?
A: Its IC50 is 1000 to 5000 nM.

Q: With `CC(C)(O)c1cc(F)cc(S(N)(=O)=NC(=O)Nc2c3c(c(F)c4c2CCC4)CCC3)c1` (single isomer, unassigned) [Example 171] as the compound, how does the IC50 read?
A: Its IC50 is 200 to 1000 nM.

Q: Which IC50 does the source give for `Cc1cc(S(N)(=O)=NC(=O)Nc2c(C(C)C)cc(OC(F)F)cc2C(C)C)sc1C(C)(C)O` (single isomer, unassigned) [Example 172] here?
A: The IC50 was 200 to 1000 nM.

Q: For `Cc1cc(S(N)(=O)=NC(=O)Nc2c(C(C)C)cc(OC(F)F)cc2C(C)C)sc1C(C)(C)O` (single isomer, unassigned) [Example 173], which IC50 is on record?
A: The IC50 was 1000 to 5000 nM.

Q: How did the IC50 turn out when `CC(C)(O)c1cc(S(N)(=O)=NC(=O)Nc2c3c(c(F)c4c2CCC4)CCC3)ccc1F` (single isomer, unassigned) [Example 174] was run?
A: The IC50 was 200 to 1000 nM.

Q: With `CC(C)(O)c1cc(S(N)(=O)=NC(=O)Nc2c3c(c(F)c4c2CCC4)CCC3)ccc1F` (single isomer, unassigned) [Example 175] as the compound, how does the IC50 read?
A: The IC50 was 1000 to 5000 nM.

Q: Which IC50 does the source give for `Cc1nc(C(C)(C)O)sc1S(N)(=O)=NC(=O)Nc1c2c(c(F)c3c1CCC3)CCC2` (single isomer, unassigned) [Example 176] here?
A: Its IC50 is 8 to 40 nM.

Q: Which IC50 does the source give for `Cc1nc(C(C)(C)O)sc1S(N)(=O)=NC(=O)Nc1c2c(c(F)c3c1CCC3)CCC2` (single isomer, unassigned) [Example 177] here?
A: Its IC50 is 1000 to 5000 nM.

Q: `CC(C)(O)c1ccc(S(N)(=O)=NC(=O)Nc2c3c(cc4c2CCC4)CCC3)cc1F` (single isomer, unassigned) [Example 178] was tested. Which IC50 did it give?
A: The IC50 was 5000 to 30000 nM.

Q: For `CC(C)(O)c1ccc(S(N)(=O)=NC(=O)Nc2c3c(cc4c2CCC4)CCC3)cc1F` (single isomer, unassigned) [Example 179], which IC50 is on record?
A: Its IC50 is 1000 to 5000 nM.

Q: For `CNS(=O)(=NC(=O)Nc1c2c(c(F)c3c1CCC3)CCC2)c1cc(C(C)(C)O)cs1` (single isomer, unassigned) [Example 180], which IC50 is on record?
A: Its IC50 is 1000 to 5000 nM.
